Measured values as given in patent US20240116985A1, “STAPLED PEPTIDES AND METHODS THEREOF” (priority 2020, published 2024).
Converted amounts (≈) assume the structure as drawn. Read-outs that look alike come from different tables or passages of the source.

Tests used:
[1] = target: T1, full-length beta-Catenin (Uniprot ID P35222) (Homo sapiens, UniProt P35222); test: Fluorescence polarization IC50 (beta-catenin / 5FAM-TCF4 10-53 competition); type: binding; conditions: fluorescence polarization
T1 construct: 10 nM full-length beta-Catenin (Uniprot ID P35222)
T1 sequence (P35222 1-781): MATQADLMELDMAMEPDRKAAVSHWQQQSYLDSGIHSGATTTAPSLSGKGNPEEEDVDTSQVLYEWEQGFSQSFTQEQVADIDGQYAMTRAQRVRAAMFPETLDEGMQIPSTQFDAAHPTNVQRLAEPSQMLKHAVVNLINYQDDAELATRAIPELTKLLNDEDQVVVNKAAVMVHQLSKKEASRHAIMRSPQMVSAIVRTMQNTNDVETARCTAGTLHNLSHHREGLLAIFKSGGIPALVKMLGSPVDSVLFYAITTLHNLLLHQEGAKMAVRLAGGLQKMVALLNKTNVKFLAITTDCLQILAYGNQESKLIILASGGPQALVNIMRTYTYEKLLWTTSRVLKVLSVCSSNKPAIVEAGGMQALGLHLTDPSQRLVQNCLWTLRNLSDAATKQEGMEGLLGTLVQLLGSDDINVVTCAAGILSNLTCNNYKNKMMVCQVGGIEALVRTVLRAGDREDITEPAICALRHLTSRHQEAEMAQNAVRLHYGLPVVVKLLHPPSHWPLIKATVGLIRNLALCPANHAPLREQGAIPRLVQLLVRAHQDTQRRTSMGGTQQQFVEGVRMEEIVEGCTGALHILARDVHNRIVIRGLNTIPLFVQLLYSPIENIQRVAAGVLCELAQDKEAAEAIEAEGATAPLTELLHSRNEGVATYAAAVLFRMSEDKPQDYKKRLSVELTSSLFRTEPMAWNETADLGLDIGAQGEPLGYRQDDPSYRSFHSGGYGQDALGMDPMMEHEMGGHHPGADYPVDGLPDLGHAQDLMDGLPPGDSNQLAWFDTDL

Solubility in PBS = type: physicochemical
Method in brief: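 The PBS solution was ultracentrifuged and the supernatant analyzed by HPLC. Its peak area was divided by that of a 50 μM peptide DMSO reference injection and multiplied by 50 uM to give solubility.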

[2] = beta-catenin, read-out: FP EC50

| IC50 ([1]; read-out: beta-Catenin FP IC50) | Solubility (Solubility in PBS) | IC50 [1, 2] | Solubility (Solubility in PBS; Solubility (uM)) | SMILES |
| --- | --- | --- | --- | --- |
| 81 nM | 50 µM (≈ 96.8 µg/mL) | – | – | CC(=O)N1CCC[C@]12CC=CCCCC1(CCCC=CCCCOC(=O)N3CC[C@@](C(=O)N[C@@H](Cc4cccc(C#N)c4)C(=O)N[C@@H](Cc4csc5ccccc45)C(=O)N[C@@H](CCC(N)=O)C(N)=O)(C3)NC(=O)[C@H](CC(C)C)NC(=O)[C@H](Cc3ccccc3)NC(=O)[C@H](C)NC(=O)[C@H](C)NC(=O)[C@H](CC(=O)O)NC(=O)[C@H](CC(=O)O)NC1=O)NC(=O)[C@H](CC(C)(C)C)NC(=O)[C@H](CC(=O)O)NC2=O (stereo partly drawn) [I-1204, Ac-PL3-Asp-Npg-B5-Asp-Asp-Ala-Ala-Phe-Leu-PyrS2-3CNF-BztA-Gln-NH2] |
| 3780 nM | 10 µM (≈ 18.4 µg/mL) | 3780 nM | – | CC(=O)N1CCC[C@]12CC=CCCCC1(CCCC=CCCCOC(=O)N3CC[C@@](C(=O)N[C@@H](Cc4ccccc4)C(=O)N[C@@H](Cc4csc5ccccc45)C(=O)N[C@@H](CCC(N)=O)C(N)=O)(C3)NC(=O)[C@H](CC(C)C)NC(=O)[C@H](Cc3ccccc3)NC(=O)[C@H](C)NC(=O)[C@H](C)NC(=O)[C@H]([C@@H](C)O)NC(=O)[C@H](CC(N)=O)NC1=O)NC(=O)[C@H](C)NC(=O)[C@H](CC(=O)O)NC2=O (stereo partly drawn) [I-1296, Ac-PL3-Asp-Ala-B5-Asn-Thr-Ala-Ala-Phe-Leu-PyrS2-Phe-BztA-Gln-NH2] |
| 43 nM | 10 µM (≈ 19.3 µg/mL) | – | – | CC(=O)N1CCC[C@]12CC=CCCCC1(CCCC=CCCCOC(=O)N3CC[C@@](C(=O)N[C@@H](Cc4ccsc4)C(=O)N[C@@H](Cc4csc5ccccc45)C(=O)N[C@@H](CCC(N)=O)C(N)=O)(C3)NC(=O)[C@H](CC(C)C)NC(=O)[C@H](Cc3ccccc3)NC(=O)[C@H](C)NC(=O)[C@H](C)NC(=O)[C@H]([C@@H](C)O)NC(=O)[C@H](CC(=O)O)NC1=O)NC(=O)[C@H](CC1CCCCC1)NC(=O)[C@H](CC(=O)O)NC2=O (stereo partly drawn) [I-1174, Ac-PL3-Asp-Cha-B5-Asp-Thr-Ala-Ala-Phe-Leu-PyrS2-3Thi-BztA-Gln-NH2] |
| 346 nM | 44 µM (≈ 85.6 µg/mL) | 346 nM | – | CC(=O)N1CCC[C@]12CC=CCCCC1(CCCC=CCCCOC(=O)N3CC[C@@](C(=O)N[C@@H](Cc4ccsc4)C(=O)N[C@@H](Cc4csc5ccccc45)C(=O)N[C@@H](CCC(N)=O)C(N)=O)(C3)NC(=O)[C@H](CC(C)C)NC(=O)[C@H](Cc3ccccc3)NC(=O)C(C)(C)NC(=O)C(C)(C)NC(=O)[C@H](CC(=O)O)NC(=O)[C@H](CC(=O)O)NC1=O)NC(=O)[C@H](CC(C)(C)C)NC(=O)[C@H](CC(=O)O)NC2=O (stereo partly drawn) [I-1179, Ac-PL3-Asp-Npg-B5-Asp-Asp-Aib-Aib-Phe-Leu-PyrS2-3Thi-BztA-Gln-NH2] |
| 2250 nM | 10 µM (≈ 19.7 µg/mL) | – | – | CC(=O)N1CCC[C@]12CC=CCCCC1(CCCC=CCCCOC(=O)N3CC[C@@](C(=O)N[C@@H](Cc4ccccc4)C(=O)N[C@@H](Cc4csc5ccccc45)C(=O)N[C@@H](CCC(N)=O)C(N)=O)(C3)NC(=O)[C@H](CC(C)C)NC(=O)[C@H](Cc3ccccc3)NC(=O)[C@H](C)NC(=O)[C@H](CCCCNC(C)C)NC(=O)[C@H](CCCCN)NC(=O)[C@H](CC(=O)O)NC1=O)NC(=O)[C@H](C)NC(=O)[C@H](CC(N)=O)NC2=O (stereo partly drawn) [I-1386, Ac-PL3-Asn-Ala-B5-Asp-Lys-iPrLys-Ala-Phe-Leu-PyrS2-Phe-BztA-Gln-NH2] |
| 1660 nM | 10 µM (≈ 19.4 µg/mL) | – | – | CC(=O)N1CCC[C@]12CC=CCCCC1(CCCC=CCCCOC(=O)N3CC[C@@](C(=O)N[C@@H](Cc4ccccc4)C(=O)N[C@@H](Cc4csc5ccccc45)C(=O)N[C@@H](CCCCN)C(N)=O)(C3)NC(=O)[C@H](CC(C)C)NC(=O)[C@H](Cc3ccccc3)NC(=O)[C@H](C)NC(=O)[C@H](CCCCNC(C)C)NC(=O)[C@H]([C@@H](C)O)NC(=O)[C@H](CC(=O)O)NC1=O)NC(=O)[C@H](C)NC(=O)[C@H](CC(N)=O)NC2=O (stereo partly drawn) [I-1383, Ac-PL3-Asn-Ala-B5-Asp-Thr-iPrLys-Ala-Phe-Leu-PyrS2-Phe-BztA-Lys-NH2] |
| 6940 nM | 10 µM (≈ 19.3 µg/mL) | – | – | CC(=O)N1CCC[C@]12CC=CCCCC1(CCCC=CCCCOC(=O)N3CC[C@@](C(=O)N[C@@H](Cc4ccccc4)C(=O)N[C@@H](Cc4ccc5ccccc5c4)C(=O)N[C@@H](CCC(N)=O)C(N)=O)(C3)NC(=O)[C@H](CC(C)C)NC(=O)[C@H](Cc3ccccc3)NC(=O)[C@H](C)NC(=O)[C@H](CCCCNC(C)C)NC(=O)[C@H]([C@@H](C)O)NC(=O)[C@H](CC(=O)O)NC1=O)NC(=O)[C@H](C)NC(=O)[C@H](CC(N)=O)NC2=O (stereo partly drawn) [I-1387, Ac-PL3-Asn-Ala-B5-Asp-Thr-iPrLys-Ala-Phe-Leu-PyrS2-Phe-2NapA-Gln-NH2] |
| 987 nM | 50 µM (≈ 96.8 µg/mL) | – | – | CC(=O)N1CCC[C@]12CC=CCCCC1(CCCC=CCCCOC(=O)N3CC[C@@](C(=O)N[C@@H](Cc4ccc(C#N)cc4)C(=O)N[C@@H](Cc4csc5ccccc45)C(=O)N[C@@H](CCC(N)=O)C(N)=O)(C3)NC(=O)[C@H](CC(C)C)NC(=O)[C@H](Cc3ccccc3)NC(=O)[C@H](C)NC(=O)[C@H](C)NC(=O)[C@H](CC(=O)O)NC(=O)[C@H](CC(=O)O)NC1=O)NC(=O)[C@H](CC(C)(C)C)NC(=O)[C@H](CC(=O)O)NC2=O (stereo partly drawn) [I-1205, Ac-PL3-Asp-Npg-B5-Asp-Asp-Ala-Ala-Phe-Leu-PyrS2-4CNF-BztA-Gln-NH2] |
| 1080 nM | 10 µM (≈ 19.7 µg/mL) | – | – | CC(=O)N1CCC[C@]12CC=CCCCC1(CCCC=CCCCOC(=O)N3CC[C@@](C(=O)N[C@@H](Cc4ccccc4)C(=O)N[C@@H](Cc4csc5ccccc45)C(=O)N[C@@H](CCC(N)=O)C(N)=O)(C3)NC(=O)[C@H](CC(C)C)NC(=O)[C@H](Cc3ccccc3)NC(=O)[C@H](C)NC(=O)[C@H](CCCCNC(C)C)NC(=O)[C@H](CCC(N)=O)NC(=O)[C@H](CC(=O)O)NC1=O)NC(=O)[C@H](C)NC(=O)[C@H](CC(N)=O)NC2=O (stereo partly drawn) [I-1385, Ac-PL3-Asn-Ala-B5-Asp-Gln-iPrLys-Ala-Phe-Leu-PyrS2-Phe-BztA-Gln-NH2] |
| 81.5 nM | 10 µM (≈ 19.1 µg/mL) | – | – | CC(=O)N1CCC[C@]12CC=CCCCC1(CCCC=CCCCCCC[C@@](C)(C(=O)N[C@@H](Cc3ccccc3Cl)C(=O)N[C@@H](Cc3csc4ccccc34)C(=O)N[C@@H](Cc3c[nH]nn3)C(N)=O)NC(=O)[C@H](CC(C)C)NC(=O)[C@H](Cc3ccccc3)NC(=O)[C@H](C)NC(=O)[C@H](C)NC(=O)[C@H](CC(=O)O)NC(=O)[C@H](CC(=O)O)NC1=O)NC(=O)[C@H](CC(C)(C)C)NC(=O)[C@H](CC(=O)O)NC2=O (stereo partly drawn) [I-1192, Ac-PL3-Asp-Npg-B5-Asp-Asp-Ala-Ala-Phe-Leu-S8-2C1F-BztA-4TriA-NH2] |
| 6 nM | 50 µM (≈ 93.3 µg/mL) | – | – | CC(=O)N1CCC[C@]12CC=CCCCC1(CCCC=CCCCOC(=O)N3CC[C@@](C(=O)N[C@@H](Cc4ccsc4)C(=O)N[C@@H](Cc4csc5ccccc45)C(=O)N[C@H](CO)[C@@H](C)O)(C3)NC(=O)[C@H]([C@@H](C)O)NC(=O)[C@H](Cc3ccccc3)NC(=O)[C@H](C)NC(=O)[C@H](C)NC(=O)[C@H](CC(=O)O)NC(=O)[C@H](CC(=O)O)NC1=O)NC(=O)[C@H](CC(C)(C)C)NC(=O)[C@H](CC(=O)O)NC2=O (stereo partly drawn) [I-1306, Ac-PL3-Asp-Npg-B5-Asp-Asp-Ala-Ala-Phe-Thr-PyrS2-3Thi-BztA-Thro1] |
| 21 nM | – | – | 20 µM (≈ 38.6 µg/mL) | CC(=O)N1CCC[C@]12CC=CCCCC1(CCCC=CCCCOC(=O)N3CC[C@@](C(=O)N[C@@H](Cc4ccccc4Cl)C(=O)N[C@@H](Cc4csc5ccccc45)C(=O)N[C@H](CO)[C@@H](C)O)(C3)NC(=O)[C@H](CC(C)C)NC(=O)[C@H](Cc3ccccc3)NC(=O)[C@H](C)NC(=O)[C@H](C)NC(=O)[C@H](CC(=O)O)NC(=O)[C@H](CC(=O)O)NC1=O)NC(=O)[C@H](CC1CCCCC1)NC(=O)[C@H](CC(=O)O)NC2=O (stereo partly drawn) [I-1307, Ac-PL3-Asp-Cha-B5-Asp-Asp-Ala-Ala-Phe-Leu-PyrS2-2C1F-BztA-Thro1] |
| 65 nM | – | – | 47 µM (≈ 89.4 µg/mL) | CC(=O)N1CCC[C@]12CC=CCCCC1(CCCC=CCCCCCC[C@@](C)(C(=O)N[C@@H](Cc3ccccc3Cl)C(=O)N[C@@H](Cc3csc4ccccc34)C(=O)N[C@H](CCC(N)=O)C(N)=O)NC(=O)[C@H](CC(C)C)NC(=O)[C@H](Cc3ccccc3)NC(=O)[C@H](C)NC(=O)[C@H](C)NC(=O)[C@H](CC(=O)O)NC(=O)[C@H](CC(=O)O)NC1=O)NC(=O)[C@H](CC(C)(C)C)NC(=O)[C@H](CC(=O)O)NC2=O (stereo partly drawn) [I-1198, Ac-PL3-Asp-Npg-B5-Asp-Asp-Ala-Ala-Phe-Leu-S8-2C1F-BztA-dGln-NH2] |
| 150 nM | 10 µM (≈ 20.5 µg/mL) | – | – | CC(=O)N1CCC[C@]12CC=CCCCC1(CCCC=CCCCOC(=O)N3CC[C@@](C(=O)N[C@@H](Cc4ccccc4C(F)(F)F)C(=O)N[C@@H](Cc4csc5ccccc45)C(=O)N[C@H](CO)[C@@H](C)O)(C3)NC(=O)[C@H](Cc3ccccc3)NC(=O)[C@H](Cc3ccccc3)NC(=O)[C@H](C)NC(=O)[C@H](C)NC(=O)[C@H](Cc3cccc(C(=O)O)c3)NC(=O)[C@H](CC(=O)O)NC1=O)NC(=O)[C@H](CC(C)(C)C)NC(=O)[C@H](CC(=O)O)NC2=O (stereo partly drawn) [I-1343, Ac-PL3-Asp-Npg-B5-Asp-3COOHF-Ala-Ala-Phe-Phe-PyrS2-2F3MeF-BztA-Thro1] |
